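Values below derive from 48-hour exposures of cells grown in 96-well plates, with endpoints linearly interpolated between the two concentrations bracketing the appropriate inhibition level. Here, GI50 denotes the concentration required for 50% inhibition of growth.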 Activity calls are given as the source filed them. Rule as the data show it: active = GI50 up to about 1.1 µM and inactive = higher.
Tests used:
Test in all cases: DTP human tumour cell line panel, 48 h
786-0 = test system: 786-0
A498 = test system: A498
A549 = test system: A549
ACHN = test system: ACHN
BT-549 = test system: BT-549
CAKI-1 = test system: CAKI-1
CCRF-CEM = test system: CCRF-CEM
COLO 205 = test system: COLO 205
DU-145 = test system: DU-145
EKVX = test system: EKVX
HCT-116 = test system: HCT-116
HCT-15 = test system: HCT-15
HL-60 = test system: HL-60
HOP-62 = test system: HOP-62
HOP-92 = test system: HOP-92
HT-29 = test system: HT-29
Hs-578T = test system: Hs-578T
IGROV-1 = test system: IGROV-1
K562 = test system: K562
KM12 = test system: KM12
LOX IMVI = test system: LOX IMVI
M14 = test system: M14
MCF7 = test system: MCF7
MDA-MB-231 = test system: MDA-MB-231
MDA-MB-435 = test system: MDA-MB-435
MDA-N = test system: MDA-N
MOLT-4 = test system: MOLT-4
Malme-3M = test system: Malme-3M
NCI-H226 = test system: NCI-H226
NCI-H23 = test system: NCI-H23
NCI-H460 = test system: NCI-H460
NCI-H522 = test system: NCI-H522
NCI/ADR-RES = test system: NCI/ADR-RES
OVCAR-3 = test system: OVCAR-3
OVCAR-4 = test system: OVCAR-4
OVCAR-5 = test system: OVCAR-5
OVCAR-8 = test system: OVCAR-8
PC-3 = test system: PC-3
RPMI-8226 = test system: RPMI-8226
RXF 393 = test system: RXF 393
SF-268 = test system: SF-268
SF-295 = test system: SF-295
SF-539 = test system: SF-539
SK-MEL-28 = test system: SK-MEL-28
SK-MEL-2 = test system: SK-MEL-2
SK-MEL-5 = test system: SK-MEL-5
SK-OV-3 = test system: SK-OV-3
SN12C = test system: SN12C
SNB-19 = test system: SNB-19
SNB-75 = test system: SNB-75
SR = test system: SR
SW-620 = test system: SW-620
T47D = test system: T47D
TK-10 = test system: TK-10
U-251 = test system: U-251
UACC-257 = test system: UACC-257
UACC-62 = test system: UACC-62
UO-31 = test system: UO-31

S=C1NC(c2ccccc2)NC(c2ccccc2)S1 (stereo unspecified)
GI50 (786-0): > 100 µM (inactive)
GI50 (A498): > 100 µM (inactive)
GI50 (A549): > 100 µM (inactive)
GI50 (ACHN): > 100 µM (inactive)
GI50 (BT-549): > 100 µM (inactive)
GI50 (CAKI-1): > 100 µM (inactive)
GI50 (CCRF-CEM): 2.2 µM (inactive)
GI50 (COLO 205): > 100 µM (inactive)
GI50 (DU-145): > 100 µM (inactive)
GI50 (EKVX): > 100 µM (inactive)
GI50 (HCT-116): > 100 µM (inactive)
GI50 (HCT-15): 51.1 µM
GI50 (HL-60): > 100 µM (inactive)
GI50 (HOP-62): 74.8 µM (inactive)
GI50 (HOP-92): > 100 µM (inactive)
GI50 (HT-29): 14.1 µM (inactive)
GI50 (Hs-578T): > 100 µM (inactive)
GI50 (IGROV-1): > 100 µM (inactive)
GI50 (K562): 42.2 µM (inactive)
GI50 (KM12): > 100 µM (inactive)
GI50 (LOX IMVI): 78.9 µM (inactive)
GI50 (M14): > 100 µM (inactive)
GI50 (MCF7): 28.2 µM (inactive)
GI50 (MDA-MB-231): > 100 µM (inactive)
GI50 (MDA-MB-435): > 100 µM (inactive)
GI50 (MDA-N): > 100 µM (inactive)
GI50 (MOLT-4): > 100 µM (inactive)
GI50 (Malme-3M): > 100 µM (inactive)
GI50 (NCI-H226): > 100 µM (inactive)
GI50 (NCI-H23): > 100 µM (inactive)
GI50 (NCI-H460): 21.4 µM (inactive)
GI50 (NCI-H522): 41.6 µM (inactive)
GI50 (NCI/ADR-RES): > 100 µM (inactive)
GI50 (OVCAR-3): > 100 µM (inactive)
GI50 (OVCAR-4): > 100 µM (inactive)
GI50 (OVCAR-5): > 100 µM (inactive)
GI50 (OVCAR-8): > 100 µM (inactive)
GI50 (PC-3): > 100 µM (inactive)
GI50 (RPMI-8226): > 100 µM (inactive)
GI50 (RXF 393): > 100 µM (inactive)
GI50 (SF-268): > 100 µM (inactive)
GI50 (SF-295): > 100 µM (inactive)
GI50 (SF-539): > 100 µM (inactive)
GI50 (SK-MEL-28): > 100 µM (inactive)
GI50 (SK-MEL-2): > 100 µM (inactive)
GI50 (SK-MEL-5): > 100 µM (inactive)
GI50 (SK-OV-3): > 100 µM (inactive)
GI50 (SN12C): > 100 µM (inactive)
GI50 (SNB-19): 55.5 µM (inactive)
GI50 (SNB-75): > 100 µM (inactive)
GI50 (SR): > 100 µM (inactive)
GI50 (SW-620): > 100 µM (inactive)
GI50 (T47D): > 100 µM (inactive)
GI50 (TK-10): > 100 µM (inactive)
GI50 (U-251): 39.4 µM (inactive)
GI50 (UACC-257): 34.6 µM (inactive)
GI50 (UACC-62): 55 µM (inactive)
GI50 (UO-31): > 100 µM (inactive)

Oc1nc(S)nc(SCc2c(Cl)c(Cl)c(Cl)c(Cl)c2Cl)n1
GI50 (786-0): 42.7 µM (inactive)
GI50 (A498): > 59.4 µM (inactive)
GI50 (A549): > 96.4 µM (inactive)
GI50 (ACHN): 77.1 µM (inactive)
GI50 (BT-549): > 80.2 µM (inactive)
GI50 (CAKI-1): 30.6 µM (inactive)
GI50 (CCRF-CEM): 15.8 µM (inactive)
GI50 (COLO 205): 18.2 µM (inactive)
GI50 (DU-145): 45.9 µM (inactive)
GI50 (EKVX): 40.9 µM (inactive)
GI50 (HCT-116): 39.8 µM (inactive)
GI50 (HCT-15): 49 µM
GI50 (HL-60): 20.1 µM (inactive)
GI50 (HOP-62): 38.7 µM (inactive)
GI50 (HOP-92): 77.8 µM (inactive)
GI50 (HT-29): 28.1 µM (inactive)
GI50 (Hs-578T): > 59.2 µM (inactive)
GI50 (IGROV-1): 69 µM (inactive)
GI50 (K562): 15.3 µM (inactive)
GI50 (KM12): 89.9 µM (inactive)
GI50 (LOX IMVI): > 63.1 µM (inactive)
GI50 (M14): 60.8 µM (inactive)
GI50 (MCF7): 37.2 µM (inactive)
GI50 (MDA-MB-231): > 100 µM (inactive)
GI50 (MDA-MB-435): 36.9 µM (inactive)
GI50 (MDA-N): 47.4 µM (inactive)
GI50 (MOLT-4): 0.809 µM (active)
GI50 (Malme-3M): 27.5 µM (inactive)
GI50 (NCI-H226): > 69.8 µM (inactive)
GI50 (NCI-H23): 55.7 µM (inactive)
GI50 (NCI-H460): 58.2 µM (inactive)
GI50 (NCI-H522): 18.2 µM (inactive)
GI50 (NCI/ADR-RES): > 58.5 µM (inactive)
GI50 (OVCAR-3): 15.3 µM (inactive)
GI50 (OVCAR-4): 21.9 µM (inactive)
GI50 (OVCAR-5): 98.2 µM (inactive)
GI50 (OVCAR-8): 62.7 µM (inactive)
GI50 (PC-3): > 67.9 µM (inactive)
GI50 (RPMI-8226): 7.18 µM (inactive)
GI50 (RXF 393): 16.9 µM (inactive)
GI50 (SF-268): 40 µM (inactive)
GI50 (SF-295): > 100 µM (inactive)
GI50 (SF-539): 46.2 µM (inactive)
GI50 (SK-MEL-28): 31.1 µM (inactive)
GI50 (SK-MEL-2): 52.5 µM (inactive)
GI50 (SK-MEL-5): > 84.1 µM (inactive)
GI50 (SK-OV-3): > 96.4 µM (inactive)
GI50 (SN12C): 49.5 µM (inactive)
GI50 (SNB-19): > 100 µM (inactive)
GI50 (SNB-75): > 100 µM (inactive)
GI50 (SR): 0.184 µM (active)
GI50 (SW-620): 32.4 µM (inactive)
GI50 (T47D): 27.9 µM (inactive)
GI50 (TK-10): > 80.2 µM (inactive)
GI50 (U-251): > 100 µM (inactive)
GI50 (UACC-257): > 88.3 µM (inactive)
GI50 (UACC-62): > 92.7 µM (inactive)
GI50 (UO-31): 30 µM (inactive)
